Data: PubChem BioAssay (NCI)
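Where inhibition never reached the appropriate level, the endpoint shown equals the highest concentration tested. Otherwise, values were interpolated linearly from a five-concentration, 48-hour dose response in 96-well plates. Definition used: TGI = concentration required for complete inhibition of growth.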

How the values were obtained:
Experiment in all cases: NCI-60 cell line screen, 48 h
U251 CNS = test system: U251 CNS
MALME-3M melanoma = test system: MALME-3M melanoma
UACC-257 melanoma = test system: UACC-257 melanoma
SK-MEL-5 melanoma = test system: SK-MEL-5 melanoma
SK-OV-3 ovarian = test system: SK-OV-3 ovarian
LOX IMVI melanoma = test system: LOX IMVI melanoma
DU-145 prostate = test system: DU-145 prostate
NCI/ADR-RES ovarian = test system: NCI/ADR-RES ovarian
UACC-62 melanoma = test system: UACC-62 melanoma
SK-MEL-28 melanoma = test system: SK-MEL-28 melanoma
CCRF-CEM leukemia = test system: CCRF-CEM leukemia
A498 renal = test system: A498 renal
MDA-MB-435 = test system: MDA-MB-435
SW-620 colon = test system: SW-620 colon
HT29 colon = test system: HT29 colon
MOLT-4 leukemia = test system: MOLT-4 leukemia
RPMI-8226 leukemia = test system: RPMI-8226 leukemia
T-47D breast = test system: T-47D breast
SF-295 CNS = test system: SF-295 CNS
HL-60(TB) leukemia = test system: HL-60(TB) leukemia
SR leukemia = test system: SR leukemia
HS 578T breast = test system: HS 578T breast
HOP-62 NSCLC = test system: HOP-62 NSCLC
UO-31 renal = test system: UO-31 renal
NCI-H460 lung = test system: NCI-H460 lung
K-562 leukemia = test system: K-562 leukemia
RXF 393 renal = test system: RXF 393 renal
MCF7 breast = test system: MCF7 breast
MDA-MB-231 breast = test system: MDA-MB-231 breast
M14 melanoma = test system: M14 melanoma
HCC-2998 colon = test system: HCC-2998 colon
SNB-75 CNS = test system: SNB-75 CNS
SK-MEL-2 melanoma = test system: SK-MEL-2 melanoma
TK-10 renal = test system: TK-10 renal
KM12 colon = test system: KM12 colon
COLO 205 colon = test system: COLO 205 colon
NCI-H226 lung = test system: NCI-H226 lung
NCI-H23 lung = test system: NCI-H23 lung
OVCAR-3 ovarian = test system: OVCAR-3 ovarian
HCT-15 colon = test system: HCT-15 colon
PC-3 prostate = test system: PC-3 prostate
ACHN renal = test system: ACHN renal
OVCAR-8 ovarian = test system: OVCAR-8 ovarian
786-0 renal = test system: 786-0 renal
CAKI-1 renal = test system: CAKI-1 renal
SN12C renal = test system: SN12C renal
MDA-N = test system: MDA-N
SF-539 CNS = test system: SF-539 CNS
NCI-H522 lung = test system: NCI-H522 lung
HCT-116 colon = test system: HCT-116 colon
EKVX NSCLC = test system: EKVX NSCLC
A549 NSCLC = test system: A549 NSCLC
OVCAR-5 ovarian = test system: OVCAR-5 ovarian
SNB-19 CNS = test system: SNB-19 CNS
HOP-92 NSCLC = test system: HOP-92 NSCLC
SF-268 CNS = test system: SF-268 CNS
OVCAR-4 ovarian = test system: OVCAR-4 ovarian
IGROV1 ovarian = test system: IGROV1 ovarian

Question: Which results are given for CC(NNC(=S)N1CCCCCC1)c1cccnn1 (centres undefined)?
Answer: TGI (U251 CNS): > 80.4 µM; TGI (MALME-3M melanoma): > 100 µM; TGI (UACC-257 melanoma): 3.77 µM; TGI (SK-MEL-5 melanoma): 2.31 µM; TGI (SK-OV-3 ovarian): 20.7 µM; TGI (LOX IMVI melanoma): > 100 µM; TGI (DU-145 prostate): > 100 µM; TGI (NCI/ADR-RES ovarian): > 88.8 µM; TGI (UACC-62 melanoma): 1.14 µM; TGI (SK-MEL-28 melanoma): > 34.5 µM; TGI (CCRF-CEM leukemia): 1.1 µM; TGI (A498 renal): 9.82 µM; TGI (MDA-MB-435): > 56.2 µM; TGI (SW-620 colon): > 100 µM; TGI (HT29 colon): > 100 µM; TGI (MOLT-4 leukemia): > 100 µM; TGI (RPMI-8226 leukemia): > 100 µM; TGI (T-47D breast): > 35.1 µM; TGI (SF-295 CNS): > 39.6 µM; TGI (HL-60(TB) leukemia): > 32.2 µM; TGI (SR leukemia): > 100 µM; TGI (HS 578T breast): > 100 µM; TGI (HOP-62 NSCLC): > 32.5 µM; TGI (UO-31 renal): 2.67 µM; TGI (NCI-H460 lung): > 21.6 µM; TGI (K-562 leukemia): > 58.7 µM; TGI (RXF 393 renal): 0.57 µM; TGI (MCF7 breast): 0.901 µM; TGI (MDA-MB-231 breast): > 100 µM; TGI (M14 melanoma): 4.94 µM; TGI (HCC-2998 colon): > 100 µM; TGI (SNB-75 CNS): > 43.4 µM; TGI (SK-MEL-2 melanoma): > 78.8 µM; TGI (TK-10 renal): > 33.3 µM; TGI (KM12 colon): > 100 µM; TGI (COLO 205 colon): > 100 µM; TGI (NCI-H226 lung): > 43.4 µM; TGI (NCI-H23 lung): > 100 µM; TGI (OVCAR-3 ovarian): > 100 µM; TGI (HCT-15 colon): > 100 µM; TGI (PC-3 prostate): > 100 µM; TGI (ACHN renal): 3.09 µM; TGI (OVCAR-8 ovarian): > 100 µM; TGI (786-0 renal): > 100 µM; TGI (CAKI-1 renal): > 100 µM; TGI (SN12C renal): > 100 µM; TGI (MDA-N): > 100 µM; TGI (SF-539 CNS): 0.939 µM

Question: N/C(=N/N=C/c1cc(Br)cc(Br)c1O)NO was tested. Which TGI (U251 CNS) did it give?
Answer: > 100 µM

Question: And the TGI (MALME-3M melanoma)?
Answer: 17.1 µM

Question: And the TGI (UACC-257 melanoma)?
Answer: 99.5 µM

Question: And the TGI (SK-MEL-5 melanoma)?
Answer: 38.5 µM

Question: What about the TGI (SK-OV-3 ovarian) of the same compound?
Answer: > 47.6 µM

Question: What about the TGI (LOX IMVI melanoma) of the same compound?
Answer: 19.8 µM

Question: What about the TGI (DU-145 prostate) of the same compound?
Answer: > 23.8 µM

Question: And the TGI (NCI/ADR-RES ovarian)?
Answer: 18.9 µM

Question: What about the TGI (UACC-62 melanoma) of the same compound?
Answer: 7.52 µM

Question: And the TGI (SK-MEL-28 melanoma)?
Answer: > 100 µM

Question: What about the TGI (NCI-H522 lung) of the same compound?
Answer: 88.6 µM

Question: What about the TGI (CCRF-CEM leukemia) of the same compound?
Answer: 3.26 µM

Question: And the TGI (A498 renal)?
Answer: 16 µM

Question: And the TGI (HCT-116 colon)?
Answer: 44 µM

Question: What about the TGI (MDA-MB-435) of the same compound?
Answer: > 81.2 µM

Question: What about the TGI (SW-620 colon) of the same compound?
Answer: > 100 µM

Question: And the TGI (HT29 colon)?
Answer: > 100 µM

Question: What about the TGI (MOLT-4 leukemia) of the same compound?
Answer: 5.58 µM

Question: And the TGI (EKVX NSCLC)?
Answer: 75.1 µM

Question: And the TGI (RPMI-8226 leukemia)?
Answer: 15.7 µM

Question: And the TGI (T-47D breast)?
Answer: 11.2 µM

Question: And the TGI (SF-295 CNS)?
Answer: > 45.9 µM

Question: And the TGI (HL-60(TB) leukemia)?
Answer: 2.31 µM

Question: And the TGI (HS 578T breast)?
Answer: > 75.3 µM

Question: What about the TGI (HOP-62 NSCLC) of the same compound?
Answer: 25.9 µM

Question: And the TGI (UO-31 renal)?
Answer: 8.4 µM

Question: What about the TGI (A549 NSCLC) of the same compound?
Answer: 53.7 µM

Question: And the TGI (NCI-H460 lung)?
Answer: 27.5 µM

Question: And the TGI (OVCAR-5 ovarian)?
Answer: > 100 µM

Question: What about the TGI (K-562 leukemia) of the same compound?
Answer: 21.5 µM

Question: And the TGI (RXF 393 renal)?
Answer: 53.4 µM

Question: And the TGI (MCF7 breast)?
Answer: > 89.3 µM

Question: What about the TGI (MDA-MB-231 breast) of the same compound?
Answer: 40.6 µM

Question: What about the TGI (M14 melanoma) of the same compound?
Answer: 12.3 µM

Question: What about the TGI (SNB-19 CNS) of the same compound?
Answer: > 80.7 µM

Question: And the TGI (HCC-2998 colon)?
Answer: > 53.8 µM

Question: What about the TGI (SNB-75 CNS) of the same compound?
Answer: > 28.3 µM

Question: What about the TGI (HOP-92 NSCLC) of the same compound?
Answer: 25.2 µM

Question: What about the TGI (SK-MEL-2 melanoma) of the same compound?
Answer: 82.9 µM

Question: What about the TGI (TK-10 renal) of the same compound?
Answer: > 45.6 µM

Question: And the TGI (KM12 colon)?
Answer: 51.4 µM

Question: What about the TGI (COLO 205 colon) of the same compound?
Answer: 49.8 µM

Question: What about the TGI (NCI-H226 lung) of the same compound?
Answer: 6.54 µM

Question: What about the TGI (NCI-H23 lung) of the same compound?
Answer: > 80.2 µM

Question: And the TGI (OVCAR-3 ovarian)?
Answer: 13.1 µM

Question: What about the TGI (HCT-15 colon) of the same compound?
Answer: > 46.6 µM

Question: What about the TGI (PC-3 prostate) of the same compound?
Answer: > 59 µM

Question: What about the TGI (ACHN renal) of the same compound?
Answer: 9.66 µM

Question: And the TGI (OVCAR-8 ovarian)?
Answer: > 25.4 µM

Question: And the TGI (786-0 renal)?
Answer: > 40.7 µM

Question: And the TGI (SF-268 CNS)?
Answer: 8.75 µM

Question: And the TGI (CAKI-1 renal)?
Answer: 2.54 µM

Question: What about the TGI (OVCAR-4 ovarian) of the same compound?
Answer: 71.4 µM

Question: What about the TGI (SN12C renal) of the same compound?
Answer: 8.8 µM

Question: And the TGI (IGROV1 ovarian)?
Answer: 4.66 µM

Question: What about the TGI (MDA-N) of the same compound?
Answer: > 100 µM

Question: And the TGI (SF-539 CNS)?
Answer: > 31.9 µM

Question: Which results are given for Cc1cc2c(c(C)c1O)C(C)(C)CN2C(=O)C(C)(C)C?
Answer: TGI (U251 CNS): > 100 µM; TGI (UACC-257 melanoma): > 100 µM; TGI (SK-MEL-5 melanoma): > 100 µM; TGI (SK-OV-3 ovarian): > 100 µM; TGI (LOX IMVI melanoma): > 100 µM; TGI (DU-145 prostate): > 100 µM; TGI (NCI/ADR-RES ovarian): 41.2 µM; TGI (UACC-62 melanoma): > 100 µM; TGI (SK-MEL-28 melanoma): > 100 µM; TGI (NCI-H522 lung): > 100 µM; TGI (CCRF-CEM leukemia): > 100 µM; TGI (A498 renal): > 100 µM; TGI (HCT-116 colon): > 100 µM; TGI (MDA-MB-435): > 100 µM; TGI (SW-620 colon): > 100 µM; TGI (HT29 colon): > 100 µM; TGI (MOLT-4 leukemia): > 100 µM; TGI (EKVX NSCLC): > 100 µM; TGI (RPMI-8226 leukemia): > 100 µM; TGI (T-47D breast): > 100 µM; TGI (SF-295 CNS): > 100 µM; TGI (HL-60(TB) leukemia): > 100 µM; TGI (HS 578T breast): > 100 µM; TGI (HOP-62 NSCLC): > 100 µM; TGI (UO-31 renal): > 100 µM; TGI (A549 NSCLC): > 100 µM; TGI (NCI-H460 lung): > 100 µM; TGI (OVCAR-5 ovarian): > 100 µM; TGI (K-562 leukemia): > 100 µM; TGI (RXF 393 renal): 86.9 µM; TGI (MCF7 breast): > 100 µM; TGI (MDA-MB-231 breast): > 100 µM; TGI (M14 melanoma): > 100 µM; TGI (SNB-19 CNS): > 100 µM; TGI (HCC-2998 colon): > 100 µM; TGI (SNB-75 CNS): 89.2 µM; TGI (HOP-92 NSCLC): 78.5 µM; TGI (TK-10 renal): > 100 µM; TGI (KM12 colon): > 100 µM; TGI (COLO 205 colon): > 100 µM; TGI (NCI-H226 lung): > 100 µM; TGI (NCI-H23 lung): > 100 µM; TGI (OVCAR-3 ovarian): 28.3 µM; TGI (HCT-15 colon): > 100 µM; TGI (PC-3 prostate): > 100 µM; TGI (ACHN renal): > 100 µM; TGI (OVCAR-8 ovarian): > 100 µM; TGI (786-0 renal): > 100 µM; TGI (SF-268 CNS): > 100 µM; TGI (OVCAR-4 ovarian): > 100 µM; TGI (SN12C renal): > 100 µM; TGI (IGROV1 ovarian): > 100 µM; TGI (MDA-N): > 100 µM; TGI (SF-539 CNS): > 100 µM
